How the values were obtained:
[1] = target: human KHK-C (Homo sapiens (Human), UniProt P50053); assay: KHK Biochemical Assay (IC50), ADP-Glo, KHK-C; conditions: average of at least two separate assays
In short: (§1)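 Luminescent ADP-Glo read-out of ADP made by His-tagged KHK (BL21 (DE3) expression, Ni-NTA). Enzyme and compound sat together 30 min before ATP/fructose addition, then reacted 4 h at RT in Hepes pH 7.4 buffer with KCl, MgCl2, Triton-X. Quench 1 h, detection 1 h.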

[2] = target: human KHK-A (Homo sapiens (Human), UniProt P50053); assay: KHK Biochemical Assay (IC50), ADP-Glo, KHK-A; conditions: average of at least two separate assays
In short: as §1

[3] = target: KHK-C expressed in NRK-52E cells (Homo sapiens (Human), UniProt P50053); assay: KHK-C Cell-based Assay (EC50), NRK CTG, fructose-mediated ATP-depletion
Chain of KHK-C expressed in NRK-52E cells (P50053 whole entry): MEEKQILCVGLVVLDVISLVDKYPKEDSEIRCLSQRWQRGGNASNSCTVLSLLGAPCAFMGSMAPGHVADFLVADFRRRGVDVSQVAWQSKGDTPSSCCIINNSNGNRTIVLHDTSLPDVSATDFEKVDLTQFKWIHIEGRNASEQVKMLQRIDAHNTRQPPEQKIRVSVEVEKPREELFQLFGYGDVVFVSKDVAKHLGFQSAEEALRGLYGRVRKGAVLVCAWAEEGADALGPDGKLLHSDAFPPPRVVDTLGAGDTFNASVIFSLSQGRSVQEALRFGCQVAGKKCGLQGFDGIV

Chain of human KHK-C (P50053 whole entry): as above
Chain of human KHK-A (P50053 other isoform, or with tags, fused parts or gaps): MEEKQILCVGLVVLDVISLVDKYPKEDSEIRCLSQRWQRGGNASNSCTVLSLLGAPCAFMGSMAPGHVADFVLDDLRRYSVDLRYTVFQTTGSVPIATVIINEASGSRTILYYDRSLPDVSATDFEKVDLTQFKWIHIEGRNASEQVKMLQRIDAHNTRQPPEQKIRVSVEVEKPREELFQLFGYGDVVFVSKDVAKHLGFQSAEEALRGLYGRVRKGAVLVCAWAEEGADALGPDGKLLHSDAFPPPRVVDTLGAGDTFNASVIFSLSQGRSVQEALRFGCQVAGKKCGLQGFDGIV

SMILES | IC50 ([1]; ADP-Glo) [nM] | IC50 ([2]; ADP-Glo) [nM] | EC50 [3] [nM] | IC50 [1] [nM] | IC50 [2] [nM]
C[C@H]1[C@H](C(N)=O)CN1c1nc2c(c(-c3ccc(C(N)=O)cc3)n1)CCC2 (relative stereo) [Example 266, (rac)-(2S*,3R*)-1-(4-(4-carbamoylphenyl)-6,7-dihydro-5H-cyclopenta[d]pyrimidin-2-yl)-2-methylazetidine-3-carboxamide] | > 5000 | > 5000 | > 5000 |  | 
C[C@H]1CCN1c1nc2c(c(-c3cccc(S(=O)(=O)NCC(=O)O)c3)n1)CCC2 [Example 74, (S)-((3-(2-(2-methylazetidin-1-yl)-6,7-dihydro-5H-cyclopenta[d]pyrimidin-4-yl)phenyl)sulfonyl)glycine] | 26.3 | 22.9 | 859 |  | 
C[C@H]1CCN1c1nc2c(c(-c3ccc4c(c3)[C@]3(C[C@@H]3C#N)C(=O)N4)n1)CCC2 (mixture of isomers) [Example 411, rac-(1R,2S)-5′-(2-((S)-2-methylazetidin-1-yl)-6,7-dihydro-5H-cyclopenta[d]pyrimidin-4-yl)-2′-oxospiro[cyclopropane-1,3′-indoline]-2-carbonitrile] |  |  | 473 | 117 | 66.3
C[C@H]1CCN1c1nc2c(c(-c3cccc(C(C)(C)N)c3)n1)CCC2 [Example 190, 2-[3-[2-[(2S)-2-methylazetidin-1-yl]-6,7-dihydro-5H-cyclopenta[d]pyrimidin-4-yl]phenyl]propan-2-amine] | 40.8 | 48.7 | 28.1 |  | 
C[C@H]1CCN1c1nc2c(c(-c3ccc(C(O)C(F)F)cc3)n1)CCC2 (stereo partly drawn) [Example 256, 2,2-difluoro-1-[4-[2-[(2S)-2-methylazetidin-1-yl]-6,7-dihydro-5H-cyclopenta[d]pyrimidin-4-yl]phenyl]ethanol] | 262 | 519 | 161 |  | 
C[C@H]1CCN1c1nc2c(c(-c3ccc4c(c3)CNC4=O)n1)CCC2 [Example 187, 5-[2-[(2S)-2-methylazetidin-1-yl]-6,7-dihydro-5H-cyclopenta[d]pyrimidin-4-yl]isoindolin-1-one] | 22.4 | 33.3 | 91.6 |  | 
C[C@H]1[C@H](O)CN1c1nc2c(c(-c3ccc(CNS(C)(=O)=O)s3)n1)CCC2 [Example 377, N-[[5-[2-[(2S,3R)-3-hydroxy-2-methyl-azetidin-1-yl]-6,7-dihydro-5H-cyclopenta[d]pyrimidin-4-yl]-2-thienyl]methyl]methanesulfonamide] | 21.1 | 26.9 | 92.9 |  | 
C[C@H]1[C@H](O)CN1c1nc2c(c(-c3ccc4c(c3)CNC4=O)n1)CCC2 [Example 196, 5-[2-[(2S,3R)-3-hydroxy-2-methyl-azetidin-1-yl]-6,7-dihydro-5H-cyclopenta[d]pyrimidin-4-yl]isoindolin-1-one] | 86.7 | 136 | 367 |  | 
C[C@H]1CCN1c1nc2c(c(-c3cnc(C(C)(C)O)s3)n1)CCC2 [Example 213, 2-[5-[2-[(2S)-2-methylazetidin-1-yl]-6,7-dihydro-5H-cyclopenta[d]pyrimidin-4-yl]thiazol-2-yl]propan-2-ol] | 33.3 | 52.6 | 52.5 |  | 
C[C@H]1CCN1c1nc2c(c(-c3ccc4ccc(=O)[nH]c4c3)n1)CCC2 [Example 132, (S)-7-(2-(2-methylazetidin-1-yl)-6,7-dihydro-5H-cyclopenta[d]pyrimidin-4-yl)quinolin-2(1H)-one] | 71.8 | 97.6 | 131 |  | 
C[C@H]1CCN1c1nc2c(c(-c3ccc(C(O)C(F)(F)F)cc3)n1)CCC2 (stereo in doubt) [Example 265, 2,2,2-trifluoro-1-[4-[2-[(2S)-2-methylazetidin-1-yl]-6,7-dihydro-5H-cyclopenta[d]pyrimidin-4-yl]phenyl]ethanol] | 1630 | 2100 | 700 |  | 
C[C@H]1[C@H](O)CN1c1nc(-c2ccc3c(c2)OC[C@]32NC(=O)OC2(C)C)c2c(n1)C(F)(F)CC2 (single isomer, unassigned) [Example 566] |  |  | 6.7 | 0.8 | 16.3
C[C@H]1CCN1c1nc2c(c(-c3cccc(C4(C(N)=O)CC4)c3)n1)CCC2 [Example 254, 1-[3-[2-[(2S)-2-methylazetidin-1-yl]-6,7-dihydro-5H-cyclopenta[d]pyrimidin-4-yl]phenyl]cyclopropanecarboxamide] | 517 | 600 | 607 |  | 
C[C@H]1CCN1c1nc(-c2cccc(N=[S@](C)(N)=O)c2)c2c(n1)C(F)(F)CC2 (single isomer, unassigned) [Example 692] |  |  | 44.9 | 8.3 | 6.9
C[C@H]1CCN1c1nc2c(c(-c3ccc4[nH]nnc4c3)n1)CCC2 [Example 729, (S)-5-(2-(2-methylazetidin-1-yl)-6,7-dihydro-5H-cyclopenta[d]pyrimidin-4-yl)-1H-benzo[d][1,2,3]triazole] |  |  | 273 | 33.5 | 29.1
C[C@H]1CCN1c1nc2c(c(-c3ccc4ccc(C(=O)O)cc4c3)n1)CCC2 [Example 232, 7-[2-[(2S)-2-methylazetidin-1-yl]-6,7-dihydro-5H-cyclopenta[d]pyrimidin-4-yl]naphthalene-2-carboxylic acid] | 44.8 | 46.1 | 1630 |  | 
C[C@H]1CCN1c1nc2c(c(-c3ccc(C(N)C(F)(F)F)cc3)n1)CCC2 (stereo in doubt) [Example 269, 2,2,2-trifluoro-1-[4-[2-[(2S)-2-methylazetidin-1-yl]-6,7-dihydro-5H-cyclopenta[d]pyrimidin-4-yl]phenyl]ethanamine] | > 5000 | > 5000 | > 5000 |  | 
C[C@H]1CCN1c1nc2c(c(-c3ccc(C(N)=O)c4ccccc34)n1)CCC2 [Example 144, (S)-4-(2-(2-methylazetidin-1-yl)-6,7-dihydro-5H-cyclopenta[d]pyrimidin-4-yl)-1-naphthamide] | 2400 | 1690 | 2440 |  | 
COc1cc(-c2nc(N3CC[C@@H]3C)nc3c2CCC3)ccc1C#N [Example 310, (S)-2-methoxy-4-(2-(2-methylazetidin-1-yl)-6,7-dihydro-5H-cyclopenta[d]pyrimidin-4-yl)benzonitrile] | 555 | 449 | 1810 |  | 
C[C@H]1[C@H](F)CN1c1nc2c(c(-c3cccc(NS(C)(=O)=O)c3)n1)CCC2 [Example 290, N-(3-(2-((2S,3R)-3-fluoro-2-methylazetidin-1-yl)-6,7-dihydro-5H-cyclopenta[d]pyrimidin-4-yl)phenyl)methanesulfonamide] | 30.9 | 50.5 | 71.3 |  | 
C[C@H]1CCN1c1nc2c(c(-c3cccc(C4CC(C(=O)O)C4)c3)n1)CCC2 (stereo partly drawn) [Example 439, 3-[3-[2-[(2S)-2-methylazetidin-1-yl]-6,7-dihydro-5H-cyclopenta[d]pyrimidin-4-yl]phenyl]cyclobutanecarboxylic acid] |  |  | 124 | 13.1 | 15.4
C[C@H]1CCN1c1nc2c(c(-c3cccc(C(=O)NCCC(N)=O)c3)n1)CCC2 [Example 220, N-(3-amino-3-oxo-propyl)-3-[2-[(2S)-2-methylazetidin-1-yl]-6,7-dihydro-5H-cyclopenta[d]pyrimidin-4-yl]benzamide] | 57.3 | 58.6 | 190 |  | 
C[C@H]1CCN1c1nc2c(c(-c3ccc(C4(C(=O)O)CC4)cc3)n1)CCC2 [Example 455, 1-[4-[2-[(2S)-2-methylazetidin-1-yl]-6,7-dihydro-5H-cyclopenta[d]pyrimidin-4-yl]phenyl]cyclopropanecarboxylic acid] |  |  | > 5000 | 248 | 497
C[C@H]1CCN1c1nc2c(c(-c3cccc([C@@H]4C[C@H]4C(=O)O)c3)n1)CCC2 (single isomer, unassigned) [Example 90] | 11.2 | 8.9 | 121 |  | 
C[C@H]1CCN1c1nc2c(c(-c3ccc(OC(F)(F)F)c(S(N)(=O)=O)c3)n1)CCC2 [Example 126, (S)-5-(2-(2-methylazetidin-1-yl)-6,7-dihydro-5H-cyclopenta[d]pyrimidin-4-yl)-2-(trifluoromethoxy)benzenesulfonamide] | 400 | 406 | 253 |  | 
C[C@H]1CCN1c1nc2c(c(-c3ccc4[nH]c(C(N)=O)cc4c3)n1)CCC2 [Example 184, 5-[2-[(2S)-2-methylazetidin-1-yl]-6,7-dihydro-5H-cyclopenta[d]pyrimidin-4-yl]-1H-indole-2-carboxamide] | 210 | 152 | 275 |  | 
C[C@H]1CCN1c1nc2c(c(-c3ccc4[nH]nc(CC(=O)O)c4c3)n1)CCC2 [Example 70, (S)-2-(5-(2-(2-methylazetidin-1-yl)-6,7-dihydro-5H-cyclopenta[d]pyrimidin-4-yl)-1H-indazol-3-yl)acetic acid] | 51.7 | 29.4 | > 5000 |  | 
C[C@H]1CCN1c1nc2c(c(-c3cccc(CC(N)=O)c3)n1)CCC2 [Example 244, 2-[3-[2-[(2S)-2-methylazetidin-1-yl]-6,7-dihydro-5H-cyclopenta[d]pyrimidin-4-yl]phenyl]acetamide] | 67.8 | 149 | 102 |  | 
C[C@H]1[C@H](F)CN1c1nc2c(c(-c3cccc(S(N)(=O)=O)c3)n1)CCC2 [Example 210] | 19.7 | 17.6 | 38.2 |  | 

Reference: patent US12410160B2 (Gilead Sciences, Inc., priority 2021, dated 2025)
